This is an account of results in patent US10752588B2 (The Broad Institute, Inc., priority 2014, dated 2020).

Data set [1] concerns the target T1, human D2R/β-arrestin (Homo sapiens (Human), UniProt P14416). In words: β-Arrestin agonist assay (PathHunter). The format is cell-based. The note with it: CHO-K1 cell line expressing human D2R/β-arrestin. In short, it runs like this:
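After compound incubation, detection reagent (Buffer:Emerald II:Galactor-Star, 19:5:1) added and luminescence or fluorescence read.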

The target of data set [2] is T1, human D2R/β-arrestin. In words: Gi/cAMP agonist assay (Lance Ultra cAMP, Forskolin). The format is cell-based. The note with it: CHO-K1 cell line expressing human D2R/β-arrestin. In short, it runs like this: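 Cells were plated and incubated before compounds were pin-transferred and incubated for 10 min at 37 °C. Forskolin was then added to stimulate cAMP. cAMP was detected by Lance Ultra TR-FRET using Eu-cAMP tracer and ULight-anti-cAMP antibody.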

Another data set is described as follows: Solubility in PBS. The format is physicochemical. The note with it: aqueous buffer.
Data set [3] deals with plasma protein. The experiment in a line: Plasma protein binding, human. The format is in vitro ADME. Particulars: plasma, read-out: Plasma Protein Binding % bound.
The subject of data set [4] is plasma protein. The experiment in a line: Plasma protein binding, mouse. Type of data set: in vitro ADME. The note with it: for fraction unbound: plasma, read-out: Plasma Protein Binding % bound.
For data set [5], the system named is plasma protein. The experiment in a line: Plasma protein binding, rat. The format is in vitro ADME. Particulars: plasma, read-out: Plasma Protein Binding % bound.
Another data set can be described thus: Plasma stability, human. Type of data set: in vitro ADME.
The nature of another data set: Plasma stability, rat. Type of data set: in vitro ADME.
A short description of data set [6]: Microsomal stability, human. Type of data set: in vitro ADME.
Data set [7] in a line: Microsomal stability, rat. The format is in vitro ADME.
The target of data set [8] is T1, human D2R/β-arrestin. In words: cell-based. The note with it: β-arrestin Antagonist, CHO-K1 cell line expressing human D2R/β-arrestin; quinpirole used as agonist.
Experimental: (§1) The detection reagents are then added, and the read-out is detected.
(§2) Cells were prepared for assays by growing cultures for up to 2 weeks (from about 6-20 passages). A vial of frozen cells was thawed in a water bath held at 37° C. The cells were then transferred into a 50 ml tube with 10 ml growth media. The vial was rinsed with growth media and the contents transferred to the 50 ml tube. The 50 ml tube was centrifuged at 1200 rpm for 5 minutes at room temperature. […] When the cells reached about 90% confluence (approximately 3 days between passages), the cells were passaged and used for either the agonist or antagonist assays as described below.
(§3) The cells were prepared for β-arrestin assays as described above. The assays were performed using a PathHunter® β-Arrestin Detecting Kit (DiscoveRX). The cells were grown on 225 mm dishes, then washed once with 1×PBS (Cellgro), followed by digestion with 2.5 ml 1× Detachment reagent (DRX 92-0009) for approximately 2 minutes.
For data set [9], the target named is T1, human D2R/β-arrestin. The experiment in a line: cell-based. Particulars: cAMP Antagonist, CHO-K1 cell line expressing human D2R/β-arrestin; quinpirole used as agonist.
Data set [10] can be described thus: Microsomal stability, mouse.
The target in the next data set is D2 (Homo sapiens (Human), UniProt P14416). The experiment in a line: D2 radioligand binding assay.
In data set [11] the target is T1, human D2R/β-arrestin. Particulars: read-out: β-arrestin Antagonist.
Experimental: as §1, §2, §3
Data set [12] concerns the target T1, human D2R/β-arrestin. The note with it: read-out: cAMP Antagonist.
Where [13] appears, read: CHO-K1 cell line expressing human D2R/β-arrestin, quinpirole used as agonist.

≈ marks a conversion by molar mass, not a printed value. Like-named read-outs stand apart in the source and are kept apart here. A value given as a limit tells only on which side of the number the result lay.

T1 sequence (P14416 whole entry): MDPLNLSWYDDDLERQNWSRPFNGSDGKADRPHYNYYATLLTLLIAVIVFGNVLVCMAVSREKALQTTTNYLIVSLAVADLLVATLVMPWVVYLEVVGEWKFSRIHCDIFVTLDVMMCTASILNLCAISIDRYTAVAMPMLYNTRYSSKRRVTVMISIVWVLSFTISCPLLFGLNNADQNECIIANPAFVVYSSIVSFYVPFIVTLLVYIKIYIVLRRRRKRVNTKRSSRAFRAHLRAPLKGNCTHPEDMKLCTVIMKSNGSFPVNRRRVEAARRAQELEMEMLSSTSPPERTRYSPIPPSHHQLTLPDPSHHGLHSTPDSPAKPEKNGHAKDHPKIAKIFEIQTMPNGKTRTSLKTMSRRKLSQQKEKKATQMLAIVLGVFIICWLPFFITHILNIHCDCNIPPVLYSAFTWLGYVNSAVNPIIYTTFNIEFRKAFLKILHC
Sequence of D2 (P14416 whole entry): as above

As for `O=C(NC(c1ccccc1)c1ccc(Cl)cc1)C1CCN(CCOc2ccccc2)CC1` (stereo not drawn) [Compound 39], the EC50 on human D2R/β-arrestin [1] and on human D2R/β-arrestin [2] was over 30000 nM throughout. The solubility in the data set “Solubility in PBS” came to 3.3 µM (≈ 1.48 µg/mL). The fraction unbound with plasma protein [3] is 0.021; in the data set on plasma protein [4], 0.02; in the data set on plasma protein [5], 0.046. Moreover, the “Plasma Stability: % remaining after 5 hours” value (shortened to “Plasma Stability: % remaining”) is 100% in “Plasma stability, human”; 86% in the data set “Plasma stability, rat”; 93% in “Plasma stability, mouse”. The “Microsomal Stability: % remaining after 60 minutes” value (“Microsomal Stability: % remaining” below) in data set [6] stood at 49%; in data set [7] it was 55%; in [10] it was 65%. The IC50 at human D2R/β-arrestin [8] and on human D2R/β-arrestin [9] was 100 to 1000 nM in each case.
Take `O=C(NC(c1ccccc1)c1ccc(F)cc1)C1CCN(CCOc2ccccc2)CC1` (stereo not drawn) [Compound 45]: the EC50 at human D2R/β-arrestin [1] and at human D2R/β-arrestin [2] was over 30000 nM each time. In addition, the solubility in the data set “Solubility in PBS” came out at 6.5 µM (≈ 2.81 µg/mL). Besides, the fraction unbound in the data set on plasma protein [3] was found to be 0.017; in the data set with plasma protein [4] it was 0.015; in the data set on plasma protein [5], 0.012. The “Plasma Stability: % remaining” value is 95% in the data set “Plasma stability, human”; 85% in “Plasma stability, rat”; 91% in the data set “Plasma stability, mouse”. In addition, the entries for the “Microsomal Stability: % remaining” value in data set [6], in data set [7] and in data set [10] were 56%, 59% and 62%, respectively. The IC50 on human D2R/β-arrestin [8] and on human D2R/β-arrestin [9] was under 100 nM throughout.
Take `O=C(NC(c1ccc(Cl)cc1)c1ccccn1)C1CCN(CCOc2ccc(F)cc2)CC1` (stereo not drawn) [Compound 5]: the EC50 on human D2R/β-arrestin [1] was over 30000 nM; at human D2R/β-arrestin [2], 10000 to 30000 nM. In the data set “Solubility in PBS”, this molecule registered a solubility of 311 µM (≈ 146 µg/mL). Moreover, the fraction unbound with plasma protein [3] was 0.195; in the data set with plasma protein [4], 0.021; in the data set on plasma protein [5], 0.142. In addition, the “Plasma Stability: % remaining” value in the data set “Plasma stability, human” is recorded as 91.2%; in the data set “Plasma stability, rat” it was 95.2%; in the data set “Plasma stability, mouse”, 90.5%. Besides, the entries for the “Microsomal Stability: % remaining” value in data set [6], in data set [7] and in [10] were 71%, 84% and 42%, respectively. Besides, the IC50 on human D2R/β-arrestin [8] and on human D2R/β-arrestin [9] was 1000 to 10000 nM each time.
Regarding `O=C(NC(c1ccc(Cl)cc1)c1ccccn1)C1CCN(CCOc2cccc(C(F)(F)F)c2)CC1` (stereo not drawn) [Compound 7, N-((4-chlorophenyl)(pyridin-2-yl)methyl)-1-(2-(3-(trifluoromethyl)phenoxy)ethyl) piperidine-4-carboxamide], the EC50 at human D2R/β-arrestin [1] is over 30000 nM; on human D2R/β-arrestin [2], 100 to 1000 nM. The molecule further had a solubility in “Solubility in PBS” of 0.7 µM (≈ 0.363 µg/mL). Besides, the fraction unbound in the data set with plasma protein [4] came out at 0.004. The “Plasma Stability: % remaining” value in the data set “Plasma stability, human” is reported as 91.5%; in the data set “Plasma stability, rat” it was 93.5%; in the data set “Plasma stability, mouse”, 100%. Also, the “Microsomal Stability: % remaining” value amounted to 87% in data set [6], 76% in data set [7] and 44% in data set [10]. Besides, the IC50 on human D2R/β-arrestin [8] and on human D2R/β-arrestin [9] was 100 to 1000 nM throughout.
Take `O=C(NC(c1ccc(Cl)cc1)c1ccccn1)C1CCN(CCOc2ccccc2C(F)(F)F)CC1` (stereo not drawn) [Compound 6]: the EC50 on human D2R/β-arrestin [1] and at human D2R/β-arrestin [2] was over 30000 nM in each case. Also, in “Solubility in PBS”, the concentration in solution (solubility) came to 0.7 µM (≈ 0.363 µg/mL). In addition, the fraction unbound with plasma protein [3] is 0.007; in the data set with plasma protein [4], 0.008. For the same molecule, the “Plasma Stability: % remaining” value in the data set “Plasma stability, human” was 99%; in “Plasma stability, rat”, 69.3%; in “Plasma stability, mouse”, 98.8%. For the same molecule, the “Microsomal Stability: % remaining” value stood at 52% in data set [6], 32% in [7] and 22% in data set [10]. For the same molecule, on D2, the Ki was 100 to 1000 nM. In addition, the IC50 on human D2R/β-arrestin [8] and on human D2R/β-arrestin [9] was under 100 nM throughout.
Turning to `O=C(NC(c1ccc2c(c1)OC(F)(F)O2)c1ccccn1)C1CCN(CCOc2ccccc2F)CC1` (single isomer, unassigned) [Compound 94a, N-((2,2-difluorobenzo[d][1,3]dioxol-5-yl)(pyridin-2-yl)methyl)-1-(2-(2-fluorophenoxy)ethyl)piperidine-4-carboxamide], the EC50 on human D2R/β-arrestin [1] and on human D2R/β-arrestin [2] was over 30000 nM each time. At D2, this molecule yielded a Ki of 100 to 1000 nM. Moreover, the IC50 on human D2R/β-arrestin [8] was 100 to 1000 nM; on human D2R/β-arrestin [9] it was under 100 nM. In addition, the “Microsomal Stability: % remaining” value in data set [10] is given as “m2%”.
On to `O=C(NC(c1ccc(Cl)cc1)c1ccc(F)cn1)C1CCN(CCOc2ccccc2F)CC1` (stereo not drawn) [Compound 92, N-((4-chlorophenyl)(5-fluoropyridin-2-yl)methyl)-1-(2-(2-fluorophenoxy)ethyl)piperidine-4-carboxamide], for which the figures for the EC50 at human D2R/β-arrestin [1] and at human D2R/β-arrestin [2] were over 30000 nM and 100 to 1000 nM, respectively. The molecule also gave a Ki at D2 of 100 to 1000 nM. In addition, the IC50 on human D2R/β-arrestin [8] and at human D2R/β-arrestin [9] was 100 to 1000 nM throughout. Also, the “Microsomal Stability: % remaining” value in data set [10] is “m22%”.
As to `CN(CC1CCN(CCOc2ccccc2)CC1)C(c1ccc(Cl)cc1)c1ccccn1` (single isomer, unassigned) [Compound 79b, 1-(4-chlorophenyl)-N-methyl-N-((1-(2-phenoxyethyl)piperidin-4-yl)methyl)-1-(pyridin-2-yl)methanamine], the EC50 is over 30000 nM on human D2R/β-arrestin [1] and 100 to 1000 nM on human D2R/β-arrestin [2]. In the data set “Solubility in PBS”, this molecule had a solubility of 8 µM (≈ 3.6 µg/mL). Also, the Ki on D2 fell in the range of 100 to 1000 nM. Besides, the IC50 on human D2R/β-arrestin [11] (setting [13]) is 1000 to 10000 nM; on human D2R/β-arrestin [9], over 30000 nM. Also, the “Plasma Stability: % remaining” value in the data set “Plasma stability, mouse” is reported as “m100%”. Moreover, the “Microsomal Stability: % remaining” value in data set [10] was “m0%”.
`CC1(C(=O)NC(c2ccc(F)cc2)c2ccccn2)CCN(CCOc2ccccc2)CC1` (single isomer, unassigned) [Compound 69b, N-((4-fluorophenyl)(pyridin-2-yl)methyl)-4-methyl-1-(2-phenoxyethyl)piperidine-4-carboxamide]: the EC50 on human D2R/β-arrestin [1] was 100 to 1000 nM; at human D2R/β-arrestin [2] it was under 100 nM. At D2, this molecule displayed a Ki of 100 to 1000 nM. Further, the results for the IC50 at human D2R/β-arrestin [12] (setting [13]) and on human D2R/β-arrestin [8] were over 30000 nM and 100 to 1000 nM, respectively.
For the molecule `O=C(NC(c1ccc2c(c1)OC(F)(F)O2)c1ccccn1)C1CCN(CCOc2ccccc2)CC1` (single isomer, unassigned) [Compound 119b], the EC50 was 100 to 1000 nM at human D2R/β-arrestin [1] and under 100 nM at human D2R/β-arrestin [2]. The “Plasma Protein Binding % bound” value with plasma protein [4] is “m97.4%”. Further, the values for the IC50 on human D2R/β-arrestin [11] and on human D2R/β-arrestin [12] were 1000 to 10000 nM and over 30000 nM, respectively. Moreover, the “Plasma Stability: % remaining” value in the data set “Plasma stability, mouse” is on record as “m100%”. Also, the “Microsomal Stability: % remaining” value in [10] is on record as “m51%”.
As to `CN(CC1CCN(CCOc2ccccc2F)CC1)C(c1ccc(Cl)cc1)c1ccccn1` (single isomer, unassigned) [Compound 72a, 1-(4-chlorophenyl)-N-((1-(2-(2-fluorophenoxy)ethyl)piperidin-4-yl)methyl)-N-methyl-1-(pyridin-2-yl)methanamine], the EC50 on human D2R/β-arrestin [1] was in the range of 1000 to 10000 nM; at human D2R/β-arrestin [2] it was 100 to 1000 nM. The molecule also showed a solubility in the data set “Solubility in PBS” of 1.4 µM (≈ 0.655 µg/mL). The same molecule registered a Ki on D2 of 100 to 1000 nM. The IC50 on human D2R/β-arrestin [8] is 100 to 1000 nM; at human D2R/β-arrestin [9], over 30000 nM. The “Plasma Stability: % remaining” value in “Plasma stability, mouse” is on record as “m100%”. In addition, the “Microsomal Stability: % remaining” value in data set [10] is “m0%”.
As for `Clc1ccc(C(c2ccccn2)N2CCC3(CCN(CCOc4ccccc4)CC3)C2)cc1` (stereo not drawn) [Compound 105, 2-((4-chlorophenyl)(pyridin-2-yl)methyl)-8-(2-phenoxyethyl)-2,8-diazaspiro[4.5]decane], the figures for the 50% effective concentration (EC50) at human D2R/β-arrestin [1] and on human D2R/β-arrestin [2] were 1000 to 10000 nM and 100 to 1000 nM, respectively. At D2, this molecule showed a Ki of under 100 nM. Also, the values for the IC50 at human D2R/β-arrestin [8] and on human D2R/β-arrestin [9] were 100 to 1000 nM and over 30000 nM, respectively. Further, in [10], the “Microsomal Stability: % remaining” value is on record as “m18%”.
